Measured values as given in patent publication US20030065039A1, “Biologically active 1,3-bis-aromatic-prop-2-en-1-ones, 1,3-bis-aromatic-propan-1-ones, and 1,3-bis-aromatic-prop-2-yn-1-ones” (Statens Serum Institute, priority 1997, published 2003).

Tests used:
Assay type in all cases: cell-based
TNF-α = TNF-α production by human peripheral blood mononuclear cells, culture supernatant (ELISA)
Protocol: Cells: Peripheral blood mononuclear cells obtained from healthy individuals. The cells were separated by a conventional method lymphoprep) and suspended in RMPI 1640 containing 5% human serum.
Stimulation of cytokine-release from human mononuclear cells: Human peripheral blood mononuclear cells from Danish donors were suspended in 1-10% (v/v) human serum in RPMI 1640 and adjusted to 2×10^6 cells per ml. 0.1 ml volumes were then dispensed into wells of 96-well microtiter plates. […] In some experiments cells were preincubated with drugs for 2 hrs before addition of stimulation antigens. The cultures were incubated overnight for TNF-α and IL-6 assays.
Supernatants were collected and assayed for TNF-α, IL-1α and IL-6 by ELISA procedures (Jakobsen et al., 1993, Fomsgaard et al., 1988, Hansen et al., 1991) with the following modifications. ELISA Maxisorp plates (Nunc, Roskilde, Denmark) were coated for 24 hrs at 4 C with 100 μl per well of 2.5 μg/ml rabbit polyclonal IgG to human recombinant TNF, IL-1α or IL-6 in 100 mM sodiumhydrogencarbonate. Non-attached sites were blocked for 1 h by 200 μl per well of 2% human serum slbumin in PBS (1 h at 37° C.), and the wells were washed 4 times in 2.5% NaCl, 0.1% Tween 20 (Merck, Darmstadt, Germany). This washing procedure was done after each of the following incubating steps:
1) 100 μl culture supernatants made to 50% (v/v) in incubation buffer (4% (v/v) normal rabbit serum, DAKO code X902), 1% polyethylene glycol (MW 6,000), 2.5% NaCl, 0.1% Tween 20 in phosphate buffered saline (PBS) were incubated 2 hrs at 37° C., dilutions of native as well as recombinant cytokine standards in the same incubation buffer were asssayed in parallel with the tested supernatants,
2) 100 μl per well of biotinilated rabbit antibodies to recombinant TNF-α, IL-1α or IL-6 (1.5 μg/ml in 0.5% human serum albumin, 0.1% Tween 20 in PBS) were added at 37° for 2 hrs,
3) […] per well of a 1:1000 dilution of streptavidin-peroxidase (Amersham, UK), at room temperature for 30 min.
Enzyme activities were quantitated after addition of 100 μl per well of 0.67 mg/ml 1,2-phenyldiamine hydrochloride (DAKO) dissolved in 100 mM citric acid-phosphate buffer, pH 5.0 containing 0.015% (v/v) H2O2. The reactions were stopped by adding 50 μl per well of 2.5 M H2SO4, and the optical densities are measured in an ELISA scanner at 490 nm against a test reference at 620 nm.
Assay: The compounds were prepared as stock solution at a concentration of 1 mg/ml in medium containing 10% DMSO. The dilutions were made in medium. The cells were stimulated with either SPAG (a malaria antigen TNF-inducer) or bacterial LPS. The supernatant of cell cultures were assayed for TNF-α using a commercial ELISA kit.

Leishmania promastigotes = Leishmania promastigotes Assay; conditions: Leishmania; promastigotes, 3H-thymidine uptake; read-out: Leishmania IC50 ± SD
Outline: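 L. major (WHO Iran vaccine strain) and L. donovani MHOM/KE/85/NLB 274 promastigotes (3×10^6/ml, day 3 and 6 cultures) exposed to compound 2 h at 26 °C, then 3H-thymidine 18 h; incorporation counted by scintillation. Microscopic counts and flagellar motility also assessed.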

human lymphocytes = assay: Lymphocyte Proliferation Assay; conditions: Lymphocyte; PHA provoked proliferation of human lymphocytes; read-out: Lymphocytes IC50 ± SD
Outline: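 Ficoll-isolated human blood mononuclear cells (0.63×10^5/ml) in RPMI 1640 with 5% FCS were cultured in triplicate with test compound and PHA or PPD for 3 or 7 days. Proliferation measured by ^3H-thymidine incorporation over the final 24 h; triplicate median recorded.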

Plasmodium falciparum = Plasmodium falciparum Assay; conditions: Plasmodium falciparum; 3-H-hypoxanthine incorporation, 48 hours; read-out: Plasmodium IC50 ± SD
Outline: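 Parasitized erythrocytes (~1% parasitemia, 5×10^8/ml) cultured 48 h in RPMI with test compound, with 3H-hypoxanthine added for the last 24 h. Growth inhibition read as 3H-hypoxanthine incorporation into parasite DNA by liquid scintillation; uninfected and untreated infected cultures run in parallel.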

COc1cc(/C=C/C(=O)c2cccc(F)c2)cc(OC)c1 [PH136, 3′-fluoro-3,5-dimethoxychalcone]
TNF-α production (OD values) (TNF-α; Experiment 1, LPS, 12.5 μg/ml, Control 1.17): 0.00 OD
TNF-α production (OD values) (TNF-α; Experiment 1, LPS, 25 μg/ml, Control 1.17): 0.00 OD
TNF-α production (OD values) (TNF-α; Experiment 1, LPS, 50 μg/ml, Control 1.17): 0.00 OD
TNF-α production (OD values) (TNF-α; Experiment 1, LPS, 100 μg/ml, Control 1.17): 0.01 OD
TNF-α production (OD values) (TNF-α; Experiment 1, SPAG, 12.5 μg/ml, Control 3.73): 0.01 OD
TNF-α production (OD values) (TNF-α; Experiment 1, SPAG, 25 μg/ml, Control 3.73): 0.00 OD
TNF-α production (OD values) (TNF-α; Experiment 1, SPAG, 50 μg/ml, Control 3.73): 0.01 OD
TNF-α production (OD values) (TNF-α; Experiment 1, SPAG, 100 μg/ml, Control 3.73): 0.00 OD
TNF-α production (OD values) (TNF-α; Experiment 2, LPS, 1.562 μg/ml, Control 2.06): 1.70 OD
TNF-α production (OD values) (TNF-α; Experiment 2, LPS, 3.125 μg/ml, Control 2.06): 1.81 OD
TNF-α production (OD values) (TNF-α; Experiment 2, LPS, 6.25 μg/ml, Control 2.06): 2.18 OD
TNF-α production (OD values) (TNF-α; Experiment 2, LPS, 12.5 μg/ml, Control 2.06): 0.08 OD
TNF-α production (OD values) (TNF-α; Experiment 2, SPAG, 1.562 μg/ml, Control 2.28): 3.29 OD
TNF-α production (OD values) (TNF-α; Experiment 2, SPAG, 3.125 μg/ml, Control 2.28): 4.00 OD
TNF-α production (OD values) (TNF-α; Experiment 2, SPAG, 6.25 μg/ml, Control 2.28): 1.39 OD
TNF-α production (OD values) (TNF-α; Experiment 2, SPAG, 12.5 μg/ml, Control 2.28): 0.02 OD
IC50 (Leishmania promastigotes): 5.5 ± 0.3 µM
IC50 (human lymphocytes): 9.2 ± 0.5 µM
IC50 (Plasmodium falciparum): 8.1 µM
